This note sets out measurements from patent US10364245B2 (CHIESI FARMACEUTICI S.p.A., priority 2017, dated 2019).

Structures can show the parent of a compound that is named as a salt.

One assay has as its target T1, p38 alpha (Homo sapiens, UniProt Q16539).
T1 construct: purchased Invitrogen PV3304
Description: P38 alpha enzyme inhibition assay (Alphascreen kinase activity assay). It is filed as biochemical. To be noted: 100 pM p38 alpha, 2 hours preincubation at 25° C., 250 μM ATP, ATF-2 fusion protein; read-out: p38α inhibition. The procedure, abridged: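 100 pM p38 alpha preincubated 2 h at 25 °C with compound and 0.3 μg/ml ATF-2 fusion substrate (HEPES pH 7.5, MgCl2, 1% DMSO). Reaction started with 250 μM ATP, run 1 h at 25 °C, stopped with EDTA; phospho-ATF2 detected by AlphaScreen luminescence. IC50 from concentration-response curves.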
On the technique in general: In Alpha technology, singlet oxygen from a donor bead excites a nearby acceptor bead.

Assay [1] has as its system Peripheral Blood Mononuclear Cells (PBMCs), TNFα release. In words: LPS-stimulated PBMC TNFα release assay. To be noted: human PBMC, LPS (10 ng/ml), 18 h, compound 1 h before LPS; read-out: LPS-stimulated PBMC TNFα release inhibition. It is filed as cell-based. The procedure, abridged: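 Human PBMCs from healthy donors, serum-starved 3 h, then pre-incubated 1 h at 37 °C with compound in 1% FBS medium before LPS (10 ng/ml) for 18 h. Supernatant TNFα measured by MSD; IC50 from dose-response as % inhibition of control, at least three experiments.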

T1 sequence (Q16539 whole entry): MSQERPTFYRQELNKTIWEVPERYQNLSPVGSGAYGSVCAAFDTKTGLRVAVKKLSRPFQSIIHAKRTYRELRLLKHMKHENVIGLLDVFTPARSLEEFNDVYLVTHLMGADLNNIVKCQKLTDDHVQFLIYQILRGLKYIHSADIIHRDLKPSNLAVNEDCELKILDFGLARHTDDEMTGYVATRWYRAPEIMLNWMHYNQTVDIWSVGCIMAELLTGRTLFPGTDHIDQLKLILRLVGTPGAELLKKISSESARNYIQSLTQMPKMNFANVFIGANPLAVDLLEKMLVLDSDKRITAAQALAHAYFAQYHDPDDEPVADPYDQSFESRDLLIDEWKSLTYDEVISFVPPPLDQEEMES

For the molecule `CCC(CC)c1nnc2ccc(O[C@@H]3CC[C@H](NC(=O)Nc4cc(C(C)(C)C)nc(C(=O)NCCN(CCOC)CCOC)n4)c4ccccc43)cn12` [Example 85, N-(2-(bis(2-methoxyethyl)amino)ethyl)-4-(tert-butyl)-6-(3-((1S,4R)-4-((3-(pentan-3-yl)-[1,2,4]triazolo[4,3-a]pyridin-6-yl)oxy)-1,2,3,4-tetrahydronaphthalen-1-yl)ureido)pyrimidine-2-carboxamide], the IC50 was below 1 nM on p38 alpha and above 5 nM in assay [1].
In the case of `CN(C)CC(C)(C)NC(=O)c1nc(NC(=O)N[C@H]2CC[C@@H](Oc3ccc4nnc(C(C)(C)C)n4c3)c3ccccc32)cc(C(C)(C)C)n1` [Example 112, 4-(tert-butyl)-6-(3-((1S,4R)-4-((3-(tert-butyl)-[1,2,4]triazolo[4,3-a]pyridin-6-yl)oxy)-1,2,3,4-tetrahydronaphthalen-1-yl)ureido)-N-(1-(dimethylamino)-2-methylpropan-2-yl)pyrimidine-2-carboxamide], the IC50 on p38 alpha fell in the range of 1 to 10 nM; in assay [1], 1 to 5 nM.
The corresponding values for `CCC(CC)c1nnc2ccc(O[C@@H]3CC[C@H](NC(=O)Nc4cc(C(C)(C)C)nc(C(=O)NCC(C)(C)N(C)C)n4)c4ccccc43)cn12` [Example 175, 4-(tert-butyl)-N-(2-(dimethylamino)-2-methylpropyl)-6-(3-((1S,4R)-4-((3-(pentan-3-yl)-[1,2,4]triazolo[4,3-a]pyridin-6-yl)oxy)-1,2,3,4-tetrahydronaphthalen-1-yl)ureido)pyrimidine-2-carboxamide formate salt] are below 1 nM and 1 to 5 nM.
For `COCCN(C)CCNC(=O)c1nc(NC(=O)N[C@H]2CC[C@@H](Oc3ccc4nnc(C5(C)CC5)n4c3)c3ccccc32)cc(C(C)(C)C)n1` [Example 137, 4-(tert-butyl)-N-(2-((2-methoxyethyl)(methyl)-amino)ethyl)-6-(3-((1S,4R)-4-((3-(1-methylcyclopropyl)-[1,2,4]triazolo[4,3-a]pyridin-6-yl)oxy)-1,2,3,4-tetrahydronaphthalen-1-yl)ureido)pyrimidine-2-carboxamide], the figures for the IC50 (on p38 alpha; in assay [1]) were 1 to 10 nM and above 5 nM, respectively.
On the same counts, the results for `CC(C)c1nnc2ccc(O[C@@H]3CC[C@H](NC(=O)Nc4cc(C(C)(C)C)nc(C(=O)NCCO)n4)c4ccccc43)cn12` [Example 65, 4-(tert-butyl)-N-(2-hydroxyethyl)-6-(3-((1S,4R)-4-((3-isopropyl-[1,2,4]triazolo[4,3-a]pyridin-6-yl)oxy)-1,2,3,4-tetrahydronaphthalen-1-yl)ureido)pyrimidine-2-carboxamide] are below 1 nM and above 5 nM.
Regarding `CN1CC(NC(=O)c2nc(NC(=O)N[C@H]3CC[C@@H](Oc4ccc5nnc(C(C)(C)C)n5c4)c4ccccc43)cc(C(C)(C)C)n2)C1` [Example 81, 4-(tert-butyl)-6-(3-((1S,4R)-4-((3-(tert-butyl)-[1,2,4]triazolo[4,3-a]pyridin-6-yl)oxy)-1,2,3,4-tetrahydronaphthalen-1-yl)ureido)-N-(1-methylazetidin-3-yl)pyrimidine-2-carboxamide], the results for the IC50 (at p38 alpha; in assay [1]) were below 1 nM and above 5 nM, respectively.
The corresponding values for `COCC(C)(C)c1nnc2ccc(O[C@@H]3CC[C@H](NC(=O)Nc4cc(C(C)(C)C)nc(C(=O)NCCN(C)C)n4)c4ccccc43)cn12` [Example 54, 4-(tert-Butyl)-N-(2-(dimethylamino)ethyl)-6-(3-((1S,4R)-4-((3-(methoxy-2-methylpropan-2-yl)-[1,2,4]triazolo[4,3-a]pyridin-6-yl)oxy)-1,2,3,4-tetrahydronaphthalen-1-yl)ureido)pyrimidine-2-carboxamide] are below 1 nM and 1 to 5 nM.
The corresponding values for `COC(C)(C)c1nnc2ccc(O[C@@H]3CC[C@H](NC(=O)Nc4cc(C(C)(C)C)nc(C(=O)NCCN5CCCOCC5)n4)c4ccccc43)cn12` [Example 12, N-(2-(1,4-Oxazepan-4-yl)ethyl)-4-(tert-butyl)-6-(3-((1S,4R)-4-((3-(2-methoxypropan-2-yl)-[1,2,4]triazolo[4,3-a]pyridin-6-yl)oxy)-1,2,3,4-tetrahydronaphthalen-1-yl)ureido)pyrimidine-2-carboxamide] are 1 to 10 nM and 1 to 5 nM.
On the same counts, the results for `CCOC(=O)c1nc(NC(=O)N[C@H]2CC[C@@H](Oc3ccc4nnc([C@]5(C)CCCN5C)n4c3)c3ccccc32)cc(C(C)(C)C)n1` [Example 36, Ethyl 4-(tert-butyl)-6-(3-((1S,4R)-4-((3-((S)-1,2-dimethylpyrrolidin-2-yl)-[1,2,4]triazolo[4,3-a]pyridin-6-yl)oxy)-1,2,3,4-tetrahydronaphthalen-1-yl)ureido)pyrimidine-2-carboxylate] are 1 to 10 nM and below 1 nM.
Regarding `CC(C)(C)c1cc(NC(=O)N[C@H]2CC[C@@H](Oc3ccc4nnc(C5CCCC5)n4c3)c3ccccc32)nc(C(=O)NCCO)n1` [Example 64], the IC50 was below 1 nM at p38 alpha and above 5 nM in assay [1].
`CC(C)Cc1nnc2ccc(O[C@@H]3CC[C@H](NC(=O)Nc4cc(C(C)(C)C)nc(C(=O)NCCN(C)C)n4)c4ccccc43)cn12` [Example 91, 4-(tert-butyl)-N-(2-(dimethylamino)ethyl)-6-(3-((1S,4R)-4-((3-isobutyl-[1,2,4]triazolo[4,3-a]pyridin-6-yl)oxy)-1,2,3,4-tetrahydronaphthalen-1-yl)ureido)pyrimidine-2-carboxamide]: the IC50 on p38 alpha is 1 to 10 nM; in assay [1], above 5 nM.
On the same counts, the results for `COC(C)(C)c1nnc2ccc(O[C@@H]3CC[C@H](NC(=O)Nc4cc(C(C)(C)C)nc(C(=O)NCCN(C)C)n4)c4ccccc43)cn12` [Example 96, 4-(tert-butyl)-N-(2-(dunethylamino)ethyl)-6-(3-((1S,4R)-4-((3-(2-methoxypropan-2-yl)-[1,2,4]triazolo[4,3-a]pyridin-6-yl)oxy)-1,2,3,4-tetrahydronaphthalen-1-yl)ureido)pyrimidine-2-carboxamide] are 1 to 10 nM and 1 to 5 nM.
`CC(C)(C)c1cc(NC(=O)N[C@H]2CC[C@@H](Oc3ccc4nnc(C5(C)CCCC5)n4c3)c3ccccc32)nc(C(=O)NCCCN2CCOCC2)n1` [Example 184, 4-(tert-Butyl)-6-(3-((1S,4R)-4-((3-(1-methylcyclopentyl)-[1,2,4]triazolo[4,3-a]pyridin-6-yl)oxy)-1,2,3,4-tetrahydronaphthalen-1-yl)ureido)-N-(3-morpholinopropyl)-pyrimidine-2-carboxamide formate salt]: the IC50 (at p38 alpha; in assay [1]) was below 1 nM each time.
Consider `CC(C)(C)c1cc(NC(=O)N[C@H]2CC[C@@H](Oc3ccc4nnc(C(C)(C)C)n4c3)c3ccccc32)cc(C(=O)NCCN2CC[C@H](O)C2)n1` [Example 195, 6-(tert-butyl)-4-(3-((1S,4R)-4-((3-(tert-butyl)-[1,2,4]triazolo[4,3-a]pyridin-6-yl)oxy)-1,2,3,4-tetrahydronaphthalen-1-yl)ureido)-N-(2-((S)-3-hydroxypyrrolidin-1-yl)ethyl)picolinamide], for which the IC50 at p38 alpha is below 1 nM; in assay [1], above 5 nM.
As for `CN(C)C(C)(C)CNC(=O)c1nc(NC(=O)N[C@H]2CC[C@@H](Oc3ccc4nnc(C(C)(C)C)n4c3)c3ccccc32)cc(C(C)(C)C)n1` [Example 117, 4-(tert-butyl)-6-(3-((1S,4R)-4-((3-(tert-butyl)-[1,2,4]triazolo[4,3-a]pyridin-6-yl)oxy)-1,2,3,4-tetrahydronaphthalen-1-yl)ureido)-N-(2-(dimethylamino)-2-methylpropyl)pyrimidine-2-carboxamide], the IC50 (at p38 alpha; in assay [1]) was below 1 nM throughout.
Turning to `CC[C@H](C)c1nnc2ccc(O[C@@H]3CC[C@H](NC(=O)Nc4cc(C(C)(C)C)nc(C(=O)NCC(C)(C)N(C)C)n4)c4ccccc43)cn12` [Example 8, 4-(tert-Butyl)-6-(3-((1S,4R)-4-((3-((S)-sec-butyl)-[1,2,4]triazolo[4,3-a]pyridin-6-yl)oxy)-1,2,3,4-tetrahydronaphthalen-1-yl)ureido)-N-(2-(dimethylamino)-2-methylpropyl)pyrimidine-2-carboxamide], the figures for the IC50 (on p38 alpha; in assay [1]) were below 1 nM and 1 to 5 nM, respectively.
The corresponding values for `CN1CCN(C(C)(C)c2nnc3ccc(O[C@@H]4CC[C@H](NC(=O)Nc5cc(C(C)(C)C)nc(CO)n5)c5ccccc54)cn23)CC1` [Example 23, 1-(6-(tert-Butyl)-2-(hydroxymethyl)pyrimidin-4-yl)-3-((1S,4R)-4-((3-(2-(4-methylpiperazin-1-yl)propan-2-yl)-[1,2,4]triazolo[4,3-a]pyridin-6-yl)oxy)-1,2,3,4-tetrahydronaphthalen-1-yl)urea] are 1 to 10 nM and above 5 nM.
For the molecule `C[C@H]1CCCCN1c1nnc2ccc(O[C@@H]3CC[C@H](NC(=O)Nc4cc(C(C)(C)C)ncn4)c4ccccc43)cn12` [Example 45, 1-(6-(tert-Butyl)pyrimidin-4-yl)-3-((1S,4R)-4-((3-((S)-2-methylpiperidin-1-yl)-[1,2,4]triazolo[4,3-a]pyridin-6-yl)oxy)-1,2,3,4-tetrahydronaphthalen-1-yl)urea], the IC50 on p38 alpha is below 1 nM; in assay [1], 1 to 5 nM.
On the same counts, the results for `CN(C)CCCNC(=O)c1nc(NC(=O)N[C@H]2CC[C@@H](Oc3ccc4nnc(C(C)(C)C)n4c3)c3ccccc32)cc(C(C)(C)C)n1` [Example 118, 4-(tert-butyl)-6-(3-((1S,4R)-4-((3-(tert-butyl)-[1,2,4]triazolo[4,3-a]pyridin-6-yl)oxy)-1,2,3,4-tetrahydronaphthalen-1-yl)ureido)-N-(3-(dimethylamino)-propyl)pyrimidine-2-carboxamide] are 1 to 10 nM and 1 to 5 nM.
